{"source": "ChEMBL document CHEMBL5500324", "about": "“The potential of marine-derived piperazine alkaloids: Sources, structures and bioactivities” (Eur J Med Chem, 2024)", "key": {"HEK293": {"test_system": "HEK293", "assay": "Cytotoxicity against HEK293 cells assessed as cell growth inhibition", "format": "functional, cell-based", "conditions": "Homo sapiens"}, "NCI-H460 [1]": {"test_system": "NCI-H460", "assay": "Cytotoxicity against human NCI-H460 cells assessed as reduction in cell growth incubated for 48 hrs by SRB assay", "format": "functional, cell-based", "conditions": "NCI-H460, 48 h"}, "SF-268 [2]": {"test_system": "SF-268", "assay": "Cytotoxicity against human SF-268 cells assessed as reduction in cell growth incubated for 48 hrs by SRB assay", "format": "functional, cell-based", "conditions": "SF-268, 48 h"}, "MCF7 [3]": {"test_system": "MCF7", "assay": "Cytotoxicity against human MCF7 cells assessed as reduction in cell growth incubated for 48 hrs by SRB assay", "format": "functional, cell-based", "conditions": "MCF7, 48 h"}, "RKO": {"test_system": "RKO", "assay": "Cytotoxicity against human RKO cells assessed as inhibition of cell growth measured after 48 hrs by MTT assay", "format": "functional, cell-based"}, "HepG2 [4]": {"test_system": "HepG2", "assay": "Cytotoxicity against human HepG2 cells assessed as reduction in cell growth incubated for 48 hrs by SRB assay", "format": "functional, cell-based", "conditions": "HepG2, 48 h"}, "HCT-116 [5]": {"test_system": "HCT-116", "assay": "Cytotoxicity against human HCT-116 cells assessed as reduction in cell viability incubated for 24 hrs by MTT assay", "format": "functional, cell-based", "conditions": "HCT-116, 24 h"}, "[6]": {"assay": "Cytotoxicity against human HaCaT cells incubated for 24 hrs by MTS assay", "format": "toxicity, cell-based"}, "A549 [7]": {"test_system": "A549", "assay": "Cytotoxicity against human A549 cells assessed as reduction in cell viability incubated for 48 hrs by Celltiter-Glo assay", "format": "functional, cell-based", "conditions": "A549, 48 h"}, "HCT-116 [8]": {"test_system": "HCT-116", "assay": "Cytotoxicity against human HCT-116 cells assessed as reduction in cell viability incubated for 48 hrs by Celltiter-Glo assay", "format": "functional, cell-based", "conditions": "HCT-116, 48 h"}, "NCI-H460 [9]": {"test_system": "NCI-H460", "assay": "Cytotoxicity against human NCI-H460 cells assessed as reduction in cell growth incubated for 72 hrs by SRB assay", "format": "functional, cell-based", "conditions": "NCI-H460, 72 h"}, "HepG2 [10]": {"test_system": "HepG2", "assay": "Cytotoxicity against human HepG2 cells assessed as reduction in cell growth incubated for 72 hrs by SRB assay", "format": "functional, cell-based", "conditions": "HepG2, 72 h"}, "MCF7 [11]": {"test_system": "MCF7", "assay": "Cytotoxicity against human MCF7 cells assessed as reduction in cell growth incubated for 72 hrs by SRB assay", "format": "functional, cell-based", "conditions": "MCF7, 72 h"}, "SF-268 [12]": {"test_system": "SF-268", "assay": "Cytotoxicity against human SF-268 cells assessed as reduction in cell growth incubated for 72 hrs by SRB assay", "format": "functional, cell-based", "conditions": "SF-268, 72 h"}, "[13]": {"assay": "Cytotoxicity against human AML1 cells expressing FLT3-ITD mutant assessed as cell viability", "format": "functional, cell-based"}, "HCT-116 [14]": {"test_system": "HCT-116", "assay": "Cytotoxicity against human HCT-116 cells assessed as reduction in cell viability incubated for 48 hrs by MTT assay", "format": "functional, cell-based", "conditions": "HCT-116, 48 h"}, "A549 [15]": {"test_system": "A549", "assay": "Cytotoxicity against human A549 cells assessed as reduction in cell viability incubated for 48 hrs by MTT assay", "format": "functional, cell-based", "conditions": "A549, 48 h"}, "NCI-H1975": {"test_system": "NCI-H1975", "assay": "Cytotoxicity against human NCI-H1975 cells assessed as cell growth inhibition by MTT assay", "format": "functional, cell-based"}, "A549 [16]": {"test_system": "A549", "assay": "Cytotoxicity against human A549 cells assessed as reduction in cell growth by MTT assay", "format": "functional, cell-based"}, "HCT-116 [17]": {"test_system": "HCT-116", "assay": "Cytotoxicity against human HCT-116 cells assessed as reduction in cell growth by MTT assay", "format": "functional, cell-based"}, "HL-60": {"test_system": "HL-60", "assay": "Cytotoxicity against human HL-60 cells assessed as cell growth inhibition by MTT assay", "format": "functional, cell-based"}, "K562": {"test_system": "K562", "assay": "Cytotoxicity against human K562 cells assessed as cell growth inhibition by MTT assay", "format": "functional, cell-based"}, "HepG2 [18]": {"test_system": "HepG2", "assay": "Cytotoxicity against human HepG2 cells assessed as inhibition of cell growth incubated for 72 hrs by SRB assay", "format": "functional, cell-based", "conditions": "HepG2, 72 h"}, "A549 [19]": {"test_system": "A549", "assay": "Cytotoxicity against human A549 cells assessed as inhibition of cell growth incubated for 72 hrs by SRB assay", "format": "functional, cell-based", "conditions": "A549, 72 h"}, "MCF7 [20]": {"test_system": "MCF7", "assay": "Cytotoxicity against human MCF7 cells assessed as inhibition of cell growth incubated for 72 hrs by SRB assay", "format": "functional, cell-based", "conditions": "MCF7, 72 h"}, "SF-268 [21]": {"test_system": "SF-268", "assay": "Cytotoxicity against human SF-268 cells assessed as inhibition of cell growth incubated for 72 hrs by SRB assay", "format": "functional, cell-based", "conditions": "SF-268, 72 h"}, "[22]": {"assay": "Cytotoxicity against human Huh7.5 cells assessed as reduction in cell viability incubated for 72 hrs by CCK-8 assay", "format": "toxicity, cell-based, Huh-7.5"}}}
{"compound": "C=c1c(=O)n2c(cc3ccccc32)c(=O)n1C", "values": [{"measurement": "IC50", "setting": "HEK293", "result": 30.1, "unit": "µM"}, {"measurement": "IC50", "setting": "NCI-H460 [1]", "result": 12.3, "unit": "µM"}, {"measurement": "IC50", "setting": "SF-268 [2]", "result": 3.3, "unit": "µM"}, {"measurement": "IC50", "setting": "MCF7 [3]", "result": 4.67, "unit": "µM"}, {"measurement": "IC50", "setting": "RKO", "result": 33.6, "unit": "µM"}, {"measurement": "IC50", "setting": "HepG2 [4]", "result": 2.29, "unit": "µM"}, {"measurement": "IC50", "setting": "HCT-116 [5]", "result": 10.3, "unit": "µM"}]}
{"compound": "CCCCCCCCCC(CC(=O)NCCCN)N1CC(=O)N(O)C(Cc2ccccc2)C1=O", "note": "(stereo not given)", "values": [{"measurement": "IC50 at 24 h", "setting": "[6]", "result": 50, "unit": "µM"}, {"measurement": "IC50", "setting": "A549 [7]", "result": 43.2, "unit": "µM"}, {"measurement": "IC50", "setting": "HCT-116 [8]", "result": 59.9, "unit": "µM"}]}
{"compound": "CC(=O)O[C@H]1C=CC=C2C[C@]34SS[C@](CO)(C(=O)N3[C@@H]21)N(C)C4=O", "values": [{"measurement": "IC50", "setting": "HEK293", "result": 4.49, "unit": "µM"}, {"measurement": "IC50", "setting": "NCI-H460 [9]", "result": 0.49, "unit": "µM"}, {"measurement": "IC50", "setting": "HepG2 [10]", "result": 0.32, "unit": "µM"}, {"measurement": "IC50", "setting": "MCF7 [11]", "result": 0.22, "unit": "µM"}, {"measurement": "IC50", "setting": "NCI-H460 [1]", "result": 0.32, "unit": "µM"}, {"measurement": "IC50", "setting": "SF-268 [2]", "result": 0.25, "unit": "µM"}, {"measurement": "IC50", "setting": "MCF7 [3]", "result": 0.22, "unit": "µM"}, {"measurement": "IC50", "setting": "RKO", "result": 1.24, "unit": "µM"}, {"measurement": "IC50", "setting": "SF-268 [12]", "result": 0.25, "unit": "µM"}, {"measurement": "IC50", "setting": "HepG2 [4]", "result": 0.49, "unit": "µM"}, {"measurement": "IC50", "setting": "HCT-116 [5]", "result": 0.89, "unit": "µM"}]}
{"compound": "CC1(C)C=Cc2c(ccc3c2N[C@@]24N5C(=O)[C@]6(O)CCCN6C(=O)[C@]5(O)C[C@@]32O[C@H](CO)C4(C)C)O1", "values": [{"measurement": "IC50", "setting": "[13]", "result": 10, "unit": "µM"}]}
{"compound": "CC(C)C[C@H]1NC(=O)[C@@H](Cc2ccc3c(c2)OCO3)NC1=O", "values": [{"measurement": "IC50", "setting": "HCT-116 [14]", "result": 45.4, "unit": "µg/mL"}, {"measurement": "IC50", "setting": "A549 [15]", "result": 28.4, "unit": "µg/mL"}]}
{"compound": "CN1C(=O)[C@]23SSS[C@]1(CO)C(=O)N2[C@H]1Nc2ccccc2C1(C12c4ccccc4N[C@H]1N1C(=O)[C@@]4(CO)SSSS[C@]1(C(=O)N4C)[C@H]2O)[C@@H]3O", "note": "(stereo not given in full)", "values": [{"measurement": "IC50", "setting": "NCI-H1975", "result": 3.6, "unit": "µM"}, {"measurement": "IC50", "setting": "A549 [16]", "result": 1.9, "unit": "µM"}, {"measurement": "IC50", "setting": "HCT-116 [17]", "result": 2.1, "unit": "µM"}, {"measurement": "IC50", "setting": "HL-60", "result": 1.9, "unit": "µM"}, {"measurement": "IC50", "setting": "K562", "result": 1.9, "unit": "µM"}]}
{"compound": "CC(C)=CCc1[nH]cnc1/C=C1\\NC(=O)CNC1=O", "values": [{"measurement": "IC50", "setting": "[13]", "result": 0.22, "unit": "µM"}]}
{"compound": "CN1C(=O)[C@H]2CSC3=C(C(=O)c4ccccc4C3=O)N2C[C@@H]1CO", "values": [{"measurement": "IC50", "setting": "HepG2 [18]", "result": 31.2, "unit": "µM"}, {"measurement": "IC50", "setting": "A549 [19]", "result": 34.4, "unit": "µM"}, {"measurement": "IC50", "setting": "MCF7 [20]", "result": 25.7, "unit": "µM"}, {"measurement": "IC50", "setting": "SF-268 [21]", "result": 17, "unit": "µM"}]}
{"compound": "CO[C@H]1CC(=O)[C@@H]2C[C@@]34SS[C@]5(C[C@H]6C(=O)C[C@H](OC)[C@H](O)[C@H]6N5C3=O)C(=O)N4[C@@H]2[C@H]1O", "values": [{"measurement": "IC50 at 72 h", "setting": "[22]", "result": 4.88, "unit": "µM"}]}
